The term logP denotes the decadic logarithm of the partition coefficient of the neutral form, usually between octanol and water. A low value points to lower lipophilicity.

A short description of the data set: Partition coefficient of compound in octanol and water by Fragmental method of Leo/Hansch. The format is physicochemical.
Compound `O=C1c2cccc(O)c2C(=O)c2c(O)cc(CO)cc21` [ALOE-EMODIN] had a logP of 2.62. The same measure for `Cc1cc(O)c2c(c1)C(=O)c1cccc(O)c1C2=O` [CHRYSOPHANOL]: 3.39; for `Cc1cc(O)c2c(c1)C(=O)c1cc(O)cc(O)c1C2=O` [EMODIN]: 2.87.

On to `COc1cc(O)c2c(c1)C(=O)c1cc(C)cc(O)c1C2=O` [PHYSCION], for which the log partition coefficient (logP) stood at 3.65. With `O=C(O)c1cc(O)c2c(c1)C(=O)c1cccc(O)c1C2=O` [RHEIN] the figure was 2.37.

(Values after ChEMBL document CHEMBL1136579, “Determination of active components in rhubarb and study of their hydrophobicity by micellar electrokinetic chromatography” (Bioorg Med Chem Lett, 2003).)
